Columns and labels:
[1] = test system: chronically stressed rats; assay: Measurement of body temperature of chronically stressed rats; type: in vivo; conditions: for Body temperature after stress: chronic stress 21 days
Text: The rats in the normal control group were raised normally under a condition without any stimulation except for weighing body weight, measuring body temperature, and subjected to sugar test. All of other groups were subjected to stimulations of same type and same strength. During the experiment, different types of stimulations were applied in an unpredictable manner, and the same type of stimulation was enhanced each time.
The stress protocol was shown as follows: horizontally shaking at a high speed for 45 min; nipping tails (1 cm from the tail root): 1 min; depriving of water for 24 h; forbidding moving for 1.5 h; fasting for 24 h; stimulating with ice water (water temperature: 10° C.) for 5 min; electric shocking (1 mA, time course: is, 1 shock/min) the bottoms of feet for 30 min; changing cages and raising separately for 24 h; forbidding moving for 2 h; nipping tails (1 cm from the root of tail) for 1 min; depriving of water for 24 h; horizontally shaking at a high speed for 1.5 h; fasting for 24 h; nipping tails (1 cm from the tail root): 1 min; electric shocking (1 mA, time course: 1 s, 1 shock/min) the bottoms of feet for 40 min; stimulating with ice water for 5 min; changing cages and raising separately for 24 h; horizontally shaking at a high speed for 60 min; electric shocking (1 mA, time course: 1 s, 1 shock/min) the bottoms of feet for 50 min; depriving of water for 24 h; forbidding moving for 2.5 h; and 24 h social isolation.
The front part of a digital thermometer was coated with liquid paraffin, and then inserted into the anus of a rat with a depth of approximately 1 cm. The temperature was read twice accordingly and averaged.

[2] = test system: male ICR mice; assay: Tail suspension test in mice; type: in vivo; conditions: 18.4 mg/kg single administration, vs control group
Protocol: The tail suspension test was carried out for each of these groups on Days 3, 7 and 14 after administration, except that such experiment was not performed for the curcumin group on Day 14. Tails of the mice were taped on a special iron stand at 1 cm from the tips, whilst keeping the mice staying at a height of 50 cm from ground. Performance of the mice was observed within 6 min, and the accumulative immobile time within the last 4 min was recoded for each mouse.

[3] = test system: S-180 cells; assay: Effect on apoptosis of tumor cells, cell cycle by flow cytometry; type: in vivo, mice; conditions: sarcoma cell cycle, S-180 tumor fluid, 7 days
Text: During the experiment, the mice were inoculated with S-180 cells (×10^7) in armpits. Seven days later, the mice were sacrificed by decollation and the tumors were removed. Tumor fluid was collected from tumors, and used for determining cell cycle by flow cytometry after ethanol fixation.

[4] = test system: Hela cell; assay: Inhibitory effect on tumor cells, MTT method; type: cell-based; conditions: 25 μM, 72 h
Protocol: (§1) The tumor cells with a stable passage feature, including Hela tumor cells, renal cancer cells, breast cancer cells, gastric cancer cells, rectal cancer cells, pulmonary cancer cells, hepatic cancer cells HepG2, prostate cancer cells, esophageal cancer cells, sarcoma cells, glioma cells, melanoma cells, lymphoma cells, and bladder cancer cells, were counted under a microscope (×10^4), and cultured in a 96-well plate under CO2 saturated water vapor for 24 h.

[5] = test system: Renal cancer cell 7860; assay: Inhibitory effect on tumor cells, MTT method; type: cell-based; conditions: Renal cancer cell 7860, 25 μM, 72 h
Protocol: as §1

[6] = test system: Breast cancer cell BT474; assay: Inhibitory effect on tumor cells, MTT method; type: cell-based; conditions: Breast cancer cell BT474, 25 μM, 72 h
Protocol: as §1

[7] = test system: Rectal cancer cell HCT116; assay: Inhibitory effect on tumor cells, MTT method; type: cell-based; conditions: Rectal cancer cell HCT116, 25 μM, 72 h
Protocol: as §1

[8] = test system: Bladder cancer cell; assay: Inhibitory effect on tumor cells, MTT method; type: cell-based; conditions: 25 μM, 72 h
Protocol: as §1

[9] = test system: Lymphoma cell; assay: Inhibitory effect on tumor cells, MTT method; type: cell-based; conditions: 25 μM, 72 h
Protocol: as §1

[10] = test system: Gastric cancer cell MGC80-3; assay: Inhibitory effect on tumor cells, MTT method; type: cell-based; conditions: Gastric cancer cell MGC80-3, 25 μM, 72 h
Protocol: as §1

[11] = test system: Hepatic cancer cell HepG2; assay: Inhibitory effect on tumor cells, MTT method; type: cell-based; conditions: Hepatic cancer cell HepG2, 25 μM, 72 h
Protocol: as §1

[12] = test system: Esophageal cancer cell; assay: Inhibitory effect on tumor cells, MTT method; type: cell-based; conditions: 25 μM, 72 h
Protocol: as §1

[13] = test system: Pulmonary cancer cell A549; assay: Inhibitory effect on tumor cells, MTT method; type: cell-based; conditions: Pulmonary cancer cell A549, 25 μM, 72 h
Protocol: as §1

[14] = test system: Melanoma cell; assay: Inhibitory effect on tumor cells, MTT method; type: cell-based; conditions: 25 μM, 72 h
Protocol: as §1

[15] = test system: Glioma cell; assay: Inhibitory effect on tumor cells, MTT method; type: cell-based; conditions: 25 μM, 72 h
Protocol: as §1

[16] = test system: Prostate cancer cell; assay: Inhibitory effect on tumor cells, MTT method; type: cell-based; conditions: 25 μM, 72 h
Protocol: as §1

[17] = test system: Sarcoma cell; assay: Inhibitory effect on tumor cells, MTT method; type: cell-based; conditions: 25 μM, 72 h
Protocol: as §1

[18] = test system: HCT116 cells; assay: Antitumor experiment of tumor HCT116-bearing mice; type: in vivo; conditions: 7-day dosage by single administration, 7 days
Text: During the experiment, the mice were inoculated with HCT116 cells (×10^7) in armpits. […] Seven days later, the mice were sacrificed by decollation. The tumors were removed, and the mice and the tumors were weighed separately.

[19] = test system: 5-HT, NA, DA and metabolites thereof in hippocampus; assay: Detection of monoamine and metabolites thereof in brains of mice; type: in vivo; conditions: 18.4 mg/kg
Protocol: Hippocampus was collected immediately on ice, weighed, put into an Eppendorf tube and kept in refrigeratory at −80° C. To each 100 mg brain tissue, 200 μl ice-cooled Solution A (0.4 mol/L HCLO4) was added. The mixture was homogenized ultrasonically in a ice bath, kept in dark at 4° C. for 60 min, and centrifuged for 20 min (12,000 rpm, 4° C.). […] The mixture was vortexed thoroughly for 10 min, kept at 4° C. in dark for 60 min, and centrifuged again for 20 min (12,000 rpm, 4° C.). The supernatant was collected and measured for the content of monoamine. The contents of 5-HT, NA, DA, 5-HIAA and DOPAC in brain tissue were determined by High Effective Liquid Phase Electrochemistry. […] The contents of monoamine and metabolites thereof in brain tissue were shown as ng/g wet tissue weight.

[20] = 4.6 mg/kg subcutaneous once every 7 days
[21] = 9.2 mg/kg subcutaneous once every 7 days
[22] = 18.4 mg/kg subcutaneous once every 7 days
[23] = first line of group (Day 3 presumed)
[24] = second line of group (Day 7 presumed)

In the case of “curcumin decanoate [long acting curcumin]”, the “Body temperature before stress” value [1, 20] is reported as 37.06 ± 0.125 °C, the “Body temperature after stress” value [1, 20] is reported as 37.40 ± 0.079 °C and the “Body temperature before stress” value [1, 21] is reported as 37.06 ± 0.158 °C. The “Body temperature after stress” value [1, 21] was 37.45 ± 0.074 °C, the “Body temperature before stress” value [1, 22] was 37.00 ± 0.122 °C and the “Body temperature after stress” value [1, 22] was 37.48 ± 0.088 °C. The “reduced the accumulative immobile time (tail suspension)” value (shortened to “reduced the accumulative immobile time”) ([2]; 3 days after administration) was 50.7%, the “reduced the accumulative immobile time” value ([2]; 7 days after administration) was 59.5% and the “reduced the accumulative immobile time” value ([2]; 14 days after administration) was 31.8%. The “APO % (apoptosis level of tumor cells)” value [3] was 44.7%, the G1 % [3] was 64.9% and the G2 % [3] was 1.0%. For the same substance, the S % [3] was 34.1%, the “Inhibitory rate (%)” value [4] was 37.3 ± 2.4% and the “Inhibitory rate (%)” value [5] was 60.6%. For the same substance, the “Inhibitory rate (%)” value [6] was 52.7 ± 1.6%, the “Inhibitory rate (%)” value [7] was 58.9 ± 2.1% and the “Inhibitory rate (%)” value [8] was 55.2 ± 1.0%. For the same substance, the “Inhibitory rate (%)” value [9] was 55.8 ± 1.7%, the “Inhibitory rate (%)” value [10] was 42.6 ± 1.7% and the “Inhibitory rate (%)” value [11] was 43.7 ± 1.4%. The “Inhibitory rate (%)” value [12] was 35.5 ± 1.1%, the “Inhibitory rate (%)” value [13] was 35.9 ± 1.2% and the “Inhibitory rate (%)” value [14] was 49.9 ± 2.0. %. The “Inhibitory rate (%)” value [15] was 58.8 ± 1.5%, the “Inhibitory rate (%)” value [16] was 39.7 ± 1.3% and the “Inhibitory rate (%)” value [17] was 45.5 ± 1.6%. The “inhibitory rate of tumors” value ([18]; high dosage group) was 49.3%, the “inhibitory rate of tumors” value ([18]; low dosage group) was 29.6% and the “inhibitory rate of tumors” value ([18]; medium dosage group) was 58.4%. For the same substance, the “Hippocampus 5-HIAA” value [19, 23] was 183.4 ± 14.2 ng/g, the “Hippocampus 5-HIAA/5-HT” value [19, 23] was 0.25 ± 0.02 and the “Hippocampus 5-HT” value [19, 23] was 713.1 ± 19.2 ng/g. For the same substance, the “Hippocampus DOPAC” value [19, 23] was 13.1 ± 2.0 ng/g, the “Hippocampus Dopamine” value [19, 23] was 20.3 ± 5.9 ng/g and the “Hippocampus Noradrenaline” value [19, 23] was 369.9 ± 12.3 ng/g. The “Hippocampus 5-HIAA” value [19, 24] was 186.3 ± 8.4 ng/g, the “Hippocampus 5-HIAA/5-HT” value [19, 24] was 0.25 ± 0.03 and the “Hippocampus 5-HT” value [19, 24] was 725.0 ± 30.4 ng/g. For the same substance, the “Hippocampus DOPAC” value [19, 24] was 14.6 ± 2.1 ng/g, the “Hippocampus Dopamine” value [19, 24] was 21.2 ± 5.6 ng/g and the “Hippocampus Noradrenaline” value [19, 24] was 372.2 ± 21.6 ng/g.

Reference: patent US8609723B2 (Beijing Dingguochangsheng Biotech., Co., Ltd., priority 2008, dated 2013)
